For assay [1], the system named is SARS-CoV-2. In kind it is cell-based. The conditions noted are these: Calu3 cells; for reduction of the cytopathic effect caused by viral infection: Data series 1, SARS-CoV-2, 10 and 1 μM, compared with mock and infected; for inhibitory effects on the virus-induced cytopathic effect: Data series 2, concentrations 10 μM-0.3125 μM. In general terms: Protection from cytopathic effect is a common read-out in antiviral testing.

Assay [2] concerns SARS-CoV-2. Format: cell-based. The conditions noted are these: 48 hours post-infection, DAPI+ cell count.

As for `CN(C)C(=O)c1cc2cnc(Nc3ccc(N4CCNCC4)cn3)nc2n1C1CCCC1` [ribociclib, Ribociclib], the “reduction of the cytopathic effect caused by viral infection” value (“reduction” for short) in the assay with SARS-CoV-2 [1] was “no inhibitory effects”.
Turning to `COc1cc2c(cc1-c1c(C)noc1C)ncc1[nH]c(=O)n([C@H](C)c3ccccn3)c12` [IBET151], in the assay on SARS-CoV-2 [1], the “reduction” value is reported as “significant reduction” and the “inhibitory effects on the virus-induced cytopathic effect” value is on record as “still evident even at the lowest concentrations”. For the same molecule, the “concentration from which positive effects on the total number or survival of Calu3 cells after SARS-CoV-2 infection occur” value with SARS-CoV-2 [2] is given as “approximately 20 nM”.
With `Cc1sc2c(c1C)C(c1ccc(Cl)cc1)=N[C@@H](CC(N)=O)c1nnc(C)n1-2` [CPI203], in the assay on SARS-CoV-2 [1], the “reduction” value is recorded as “significant reduction” and the “inhibitory effects on the virus-induced cytopathic effect” value is recorded as “still evident even at the lowest concentrations”. Besides, the “concentration from which positive effects on the total number or survival of Calu3 cells after SARS-CoV-2 infection occur” value with SARS-CoV-2 [2] is recorded as “approximately 20 nM”.
In the case of `CCN(CCO)CCCC(C)Nc1ccnc2cc(Cl)ccc12` (stereo not drawn) [hydroxychloroquine, Hydroxychloroquine], in the assay with SARS-CoV-2 [1], the “reduction” value is “no inhibitory effects”. The “positive effects on the total number or survival of Calu3 cells after SARS-CoV-2 infection” value in the assay with SARS-CoV-2 [2] is on record as “not observed”.

The values are drawn from patent US20230084839A1, “ACTIVE AGENTS AGAINST CORONAVIRUS INFECTIONS AND DISEASES CAUSED THEREBY” (Eberhard Karls Universität Tübigen Medizinische Fakultät, priority 2020, published 2023).
